Test results reported in patent publication US9925251B2, “Treatments for Mycobacterium tuberculosis” (priority 2011, dated 2018).
Entries after “also recorded” stand apart in the source; their conditions may differ. Like-named read-outs stand apart in the source and are kept apart here. Starred links: 1 amine or outer side, 2 acyl side, 3 side chain; linkers in the order of their positions; H or OH if unused. Non-standard residues stand in square brackets, D forms with d. No end group written: not given here. *: point of attachment. Dpa(Dnp) = O=C([C@H](CNc1ccc([N+](=O)[O-])cc1[N+](=O)[O-])N[*:1])[*:2]; Mca = COc1ccc2c(CC(=O)*)cc(=O)oc2c1; Suc = O=C(CCC(=O)[*:2])[*:1]; Nle = CCCC[C@H](N)C(=O)O; Cbz = O=C(OCc1ccccc1)*; amc = not defined here

Assays:
Mtb ClpP1P2 [1] = target: T1, Mtb ClpP1P2 (Mycobacterium tuberculosis, UniProt P9WPC3+P9WPC5); type: biochemical; settings: for cleavage by ClpP1P2 (in words): activator present
Mtb ClpP1P2 [2] = target: T1, Mtb ClpP1P2; test: biochemical; type: biochemical
ClpC1 ATPase = ClpC1 ATPase (Mycobacterium tuberculosis, UniProt P9WPC9); type: biochemical
Msm ptet_clpP2 = type: cell-based, Mycobacterium smegmatis; settings: for growth of strain: sub-MIC concentration
Mtb ClpP1P2 [3] = target: T1, Mtb ClpP1P2; type: biochemical
Mtb ClpP1P2 [4] = target: T1, Mtb ClpP1P2; type: biochemical; settings: 10 best substrates each with Met, Leu, Phe, Ala at P1; library screening
[5] = Peptide Aldehydes (0.5 mM), peptidase activity with Z-Gly-Gly-Leu-amc, maximal activation by Z-Leu-Nle-aldehyde taken as 100%
[6] = Peptide Derivatives (1 mM), peptidase activity with Z-Gly-Gly-Leu-amc, Z-Leu-Leu-aldehyde 100.0
[7] = low concentration of ATc (ClpP2 partially depleted)
[8] = substance is the substrate, Z-Gly-Gly-Leu-amc = 100

ClpC1 ATPase, sequence (P9WPC9 whole entry): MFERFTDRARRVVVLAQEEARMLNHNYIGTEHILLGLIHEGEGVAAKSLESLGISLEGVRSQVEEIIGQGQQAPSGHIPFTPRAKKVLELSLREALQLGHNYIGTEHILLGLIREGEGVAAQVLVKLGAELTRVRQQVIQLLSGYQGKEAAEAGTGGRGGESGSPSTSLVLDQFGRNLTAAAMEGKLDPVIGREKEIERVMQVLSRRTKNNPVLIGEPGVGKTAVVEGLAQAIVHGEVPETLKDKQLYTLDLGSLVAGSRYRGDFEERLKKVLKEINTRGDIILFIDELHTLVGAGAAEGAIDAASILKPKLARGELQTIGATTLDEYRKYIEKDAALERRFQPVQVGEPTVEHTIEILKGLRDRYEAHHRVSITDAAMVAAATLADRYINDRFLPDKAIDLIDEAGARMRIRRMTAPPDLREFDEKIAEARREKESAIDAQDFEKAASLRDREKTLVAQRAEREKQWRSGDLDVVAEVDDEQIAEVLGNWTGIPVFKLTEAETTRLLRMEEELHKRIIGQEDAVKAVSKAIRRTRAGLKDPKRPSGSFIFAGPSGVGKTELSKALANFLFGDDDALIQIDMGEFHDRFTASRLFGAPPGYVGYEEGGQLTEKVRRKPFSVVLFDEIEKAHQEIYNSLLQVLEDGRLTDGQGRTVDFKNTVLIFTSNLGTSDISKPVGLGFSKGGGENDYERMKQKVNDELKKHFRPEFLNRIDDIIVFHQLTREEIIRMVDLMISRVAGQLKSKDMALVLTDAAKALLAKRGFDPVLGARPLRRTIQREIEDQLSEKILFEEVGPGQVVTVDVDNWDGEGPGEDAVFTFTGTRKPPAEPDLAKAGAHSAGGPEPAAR

Cc1cc(=O)oc2cc(NC(=O)C(C)N)ccc12 (stereo not drawn) [Ala-amc] was tested, and the “RELATIVE RATES OF HYDROLYSIS (%)” value (Mtb ClpP1P2 [1]) was 0.78%.

Cc1cc(=O)oc2cc(NC(=O)[C@@H](N)CC(C)C)ccc12 [Leu-amc] was tested, and the “RELATIVE RATES OF HYDROLYSIS (%)” value (Mtb ClpP1P2 [1]) was 0.36%.

For Cc1cc(=O)oc2cc(NC(=O)C(N)Cc3ccccc3)ccc12 (stereo not drawn) [Phe-amc], the “RELATIVE RATES OF HYDROLYSIS (%)” value (Mtb ClpP1P2 [1]) was 0.26%.

In the case of CC(C)C[C@@H](C=O)NC(=O)[C@H](CC(C)C)NC(=O)OCc1ccccc1 [Z-Leu-Leu-aldehyde], the Kd (Mtb ClpP1P2 [2]) is reported as 240 µM, the “RELATIVE ACTIVITY (%)” value (Mtb ClpP1P2 [2]; [5]) is reported as 77.6% and the “RELATIVE ACTIVITY (%)” value (Mtb ClpP1P2 [2]; [6]) is reported as 100.0%. For the same compound, the “stimulation of ClpP1P2 activity (in words)” value (“stimulation” below) (Mtb ClpP1P2 [2]; against Z-Gly-Gly-Leu-AMC) was “strongest stimulation”.

In the case of CC(C)C[C@H](NC(=O)[C@H](CC(C)C)NC(=O)OCc1ccccc1)C(=O)O [Z-Leu-Leu], the “effect on ClpC1 ATPase activity (in words)” value (ClpC1 ATPase) is reported as “did not influence”, the Kd (Mtb ClpP1P2 [2]) is reported as 2200 µM and the “RELATIVE ACTIVITY (%)” value (Mtb ClpP1P2 [2]; Active enzyme diluted (200x) without activator, then activator re-added) is reported as 96.0%. For the same compound, the “RELATIVE ACTIVITY (%)” value (Mtb ClpP1P2 [2]; Active enzyme diluted (200x), with activator) was 100.0%, the “RELATIVE ACTIVITY (%)” value (Mtb ClpP1P2 [2]; Active enzyme diluted (200x), without activator) was 1.2% and the “RELATIVE ACTIVITY (%)” value (Mtb ClpP1P2 [2]; [6]) was 18.5%. For the same compound, the “stimulation” value (Mtb ClpP1P2 [2]; against Z-Gly-Gly-Leu-AMC) was “could also activate ClpP1P2”.

In the case of CC(C)C[C@@H](CO)NC(=O)OCc1ccccc1 [Z-Leu-alcohol], the “RELATIVE ACTIVITY (%)” value (Mtb ClpP1P2 [2]) is reported as 2.4%.

In the case of CC(C)C[C@H](NC(=O)OCc1ccccc1)C(=O)O [Z-Leu], the “RELATIVE ACTIVITY (%)” value (Mtb ClpP1P2 [2]) is reported as 5.3% and the “stimulation” value (Mtb ClpP1P2 [2]) is reported as “much smaller stimulation”.

NCC[C@H](O)C(=O)N[C@@H]1C[C@H](N)[C@@H](O[C@H]2O[C@H](CN)[C@@H](O)[C@H](O)[C@H]2O)[C@H](O)[C@H]1O[C@H]1O[C@H](CO)[C@@H](O)[C@H](N)[C@H]1O [amikacin] was tested, and the growth of strain (Msm ptet_clpP2; high concentration of ATc) was “no effect on growth” and the growth of strain (Msm ptet_clpP2; [7]) was “significantly inhibited the growth”.

In the case of O=C(N[C@H](CO)[C@H](O)c1ccc([N+](=O)[O-])cc1)C(Cl)Cl [chloramphenicol], the “viability, low versus high ATc” value (Msm ptet_clpP2; sublethal concentration) is reported as “no difference in viability”.

In the case of O=c1oc(Cl)c(Cl)c2ccccc12 [dichloroisocoumarin], the “inhibition of ClpP1P2 activity (in words)” value (Mtb ClpP1P2 [3]) is reported as “sensitive; also recorded: completely inhibit”.

Oc1c(Cl)cc(Cl)c(Cl)c1Cc1c(O)c(Cl)cc(Cl)c1Cl [hexachlorophene] was tested, and the “effect on ClpC1 ATPase activity (in words)” value (ClpC1 ATPase) was “inhibits” and the “concentration at which the inhibitor works” value (ClpC1 ATPase; inhibition of ClpC1 ATPase activity) was 5 to 10 mM.

With [H]/N=C(/N)N[C@H]1[C@H](O)[C@@H](O)[C@H](O[C@@H]2O[C@@H](C)[C@](O)(C=O)[C@H]2O[C@@H]2O[C@@H](CO)[C@H](O)[C@@H](O)[C@@H]2NC)[C@@H](N/C(N)=N\[H])[C@@H]1O [streptomycin] the growth of strain (Msm ptet_clpP2; high concentration of ATc) was “no effect on growth” and the growth of strain (Msm ptet_clpP2; [7]) was “significantly inhibited the growth”.

With Ac-Nle-Pro-Nle-Asp-amc the “RELATIVE RATES OF HYDROLYSIS (%)” value (Mtb ClpP1P2 [1]; [8]) was 36.0%.

For Ala-Ala-Phe-amc, the “RELATIVE RATES OF HYDROLYSIS (%)” value (Mtb ClpP1P2 [1]; [8]) was 87.0%.

In the case of Asp-amc, the “RELATIVE RATES OF HYDROLYSIS (%)” value (Mtb ClpP1P2 [1]) is reported as 0.1%.

In the case of Cbz-AP[Nle]D-aldehyde, the “RELATIVE ACTIVITY (%)” value (Mtb ClpP1P2 [2]; [5]) is reported as 0.8%.

Cbz-Gly-Gly-Leu was tested, and the “RELATIVE ACTIVITY (%)” value (Mtb ClpP1P2 [2]; [6]) was 3.7%.

For Cbz-Gly-Leu-Leu, the “stimulation” value (Mtb ClpP1P2 [2]; against Z-Gly-Gly-Leu-AMC) was “much smaller stimulation”.

In the case of Cbz-Phe-Tyr-aldehyde, the “RELATIVE ACTIVITY (%)” value (Mtb ClpP1P2 [2]; [5]) is reported as 1.3%.

In the case of Cbz-Val-Phe-aldehyde, the “RELATIVE ACTIVITY (%)” value (Mtb ClpP1P2 [2]; [5]) is reported as 1.9% and the “stimulation” value (Mtb ClpP1P2 [2]; against Z-Gly-Gly-Leu-AMC) is reported as “did not show any stimulatory capacity”.

“Mca-GHQQYAMK-Dpa(Dnp)-amide (Mca-GHQQYAMK[Dpa(Dnp)]-NH2)” was tested, and the “cleavage by ClpP1P2 (in words)” value (Mtb ClpP1P2 [1]; substance is the substrate) was “could cleave”.

With “Mca-GNQQYKMK-Dpa(Dnp)-amide (Mca-GNQQYKMK[Dpa(Dnp)]-NH2)” the “cleavage by ClpP1P2 (in words)” value (Mtb ClpP1P2 [1]; substance is the substrate) was “could cleave”.

With “Mca-GNTQFKRR-Dpa(Dnp)-amide (Mca-GNTQFKRR[Dpa(Dnp)]-NH2)” the “cleavage by ClpP1P2 (in words)” value (Mtb ClpP1P2 [1]; substance is the substrate) was “could cleave”.

“Mca-KKPTPIQLN-Dpa(Dnp)-amide (Mca-KKPTPIQLN[Dpa(Dnp)]-NH2)” was tested, and the “cleavage by ClpP1P2 (in words)” value (Mtb ClpP1P2 [1]; substance is the substrate) was “could cleave”.

In the case of “N-acetyl-Pro-Lys-Met-aminomethylcoumarin [PKM]”, the “Norm RFU” value (Mtb ClpP1P2 [4]) is reported as 1497.

For Suc-Ala-Ala-Phe-amc, the “RELATIVE RATES OF HYDROLYSIS (%)” value (Mtb ClpP1P2 [1]; [8]) was 42.0%.

With “Suc-Ala-Ala-Pro-Ala-amc (Suc-AAPA-amc; reading uncertain)” the “RELATIVE RATES OF HYDROLYSIS (%)” value (Mtb ClpP1P2 [1]; [8]) was 0.08%.

For “Suc-Ala-Leu-Pro-Phe-amc (Suc-ALPF-amc; reading uncertain)”, the “RELATIVE RATES OF HYDROLYSIS (%)” value (Mtb ClpP1P2 [1]; [8]) was 0.12%.

For “Suc-Leu-Leu-Val-Tyr-amc (Suc-LLVY-amc; reading uncertain)”, the “RELATIVE RATES OF HYDROLYSIS (%)” value (Mtb ClpP1P2 [1]; [8]) was 0.8%.

In the case of Suc-Leu-Tyr-amc, the “RELATIVE RATES OF HYDROLYSIS (%)” value (Mtb ClpP1P2 [1]; [8]) is reported as 11.5%.

Z-Ala-Ala-Ala-amc was tested, and the “RELATIVE RATES OF HYDROLYSIS (%)” value (Mtb ClpP1P2 [1]; [8]) was 3.6%.

For Z-Gly-Gly-Arg-amc, the “RELATIVE RATES OF HYDROLYSIS (%)” value (Mtb ClpP1P2 [1]; [8]) was 0.55%.

Z-Gly-Gly-Leu-amc was tested, and the “RELATIVE RATES OF HYDROLYSIS (%)” value (Mtb ClpP1P2 [1]; [8]) was 100.0%.

For Z-Gly-Leu, the “RELATIVE ACTIVITY (%)” value (Mtb ClpP1P2 [2]; [6]) was 4.8% and the “stimulation” value (Mtb ClpP1P2 [2]; against Z-Gly-Gly-Leu-AMC) was “much smaller stimulation”.

With Z-Leu-Leu-Arg-amc the “RELATIVE RATES OF HYDROLYSIS (%)” value (Mtb ClpP1P2 [1]; [8]) was 0.25%.

For Z-Leu-Leu-Glu-amc, the “RELATIVE RATES OF HYDROLYSIS (%)” value (Mtb ClpP1P2 [1]; [8]) was 0.35%.

In the case of Z-Leu-Leu-Leu-amc, the “RELATIVE RATES OF HYDROLYSIS (%)” value (Mtb ClpP1P2 [1]; [8]) is reported as 0.15%.

For Z-Leu-Leu-alcohol, the “RELATIVE ACTIVITY (%)” value (Mtb ClpP1P2 [2]; [6]) was 17.6% and the “stimulation” value (Mtb ClpP1P2 [2]; against Z-Gly-Gly-Leu-AMC) was “could also activate ClpP1P2”.

In the case of Z-Leu-Leu-amc, the “RELATIVE RATES OF HYDROLYSIS (%)” value (Mtb ClpP1P2 [1]; [8]) is reported as 4.7%.

For Z-Leu-Leu-leucinal, the “stimulation” value (Mtb ClpP1P2 [2]; against Z-Gly-Gly-Leu-AMC) was “significantly less active”.

Z-Leu-Nle-aldehyde was tested, and the “RELATIVE ACTIVITY (%)” value (Mtb ClpP1P2 [2]; [5]) was 100.0%.

In the case of Z-Phe-Val-Arg-amc, the “RELATIVE RATES OF HYDROLYSIS (%)” value (Mtb ClpP1P2 [1]; [8]) is reported as 0.18%.

Z-Pro-Nlee-Asp-aldehyde was tested, and the “RELATIVE ACTIVITY (%)” value (Mtb ClpP1P2 [2]; [5]) was 1.2% and the “stimulation” value (Mtb ClpP1P2 [2]; against Z-Gly-Gly-Leu-AMC) was “did not show any stimulatory capacity”.
